Measured values: article PMC8232895 (Drug Design, Development and Therapy, 2021)
Where two headings read alike, the source gives them in different places.

How the values were obtained:
[1] = ABTS free radical scavenging assay; details: for ABTS radical % Inhibition (Mean±SEM): n 3; for IC50: read-out: ABTS scavenging IC50
[2] = DPPH free radical scavenging assay; details: for DPPH radical % Inhibition (Mean±SEM): n 3; for IC50: read-out: DPPH scavenging IC50
[3] = biological target: T1, butyrylcholinesterase (BChE) (Equus caballus, UniProt P81908); test: biochemical; details: read-out: BChE % Inhibition (Mean±SEM)
T1 sequence (P81908 whole entry): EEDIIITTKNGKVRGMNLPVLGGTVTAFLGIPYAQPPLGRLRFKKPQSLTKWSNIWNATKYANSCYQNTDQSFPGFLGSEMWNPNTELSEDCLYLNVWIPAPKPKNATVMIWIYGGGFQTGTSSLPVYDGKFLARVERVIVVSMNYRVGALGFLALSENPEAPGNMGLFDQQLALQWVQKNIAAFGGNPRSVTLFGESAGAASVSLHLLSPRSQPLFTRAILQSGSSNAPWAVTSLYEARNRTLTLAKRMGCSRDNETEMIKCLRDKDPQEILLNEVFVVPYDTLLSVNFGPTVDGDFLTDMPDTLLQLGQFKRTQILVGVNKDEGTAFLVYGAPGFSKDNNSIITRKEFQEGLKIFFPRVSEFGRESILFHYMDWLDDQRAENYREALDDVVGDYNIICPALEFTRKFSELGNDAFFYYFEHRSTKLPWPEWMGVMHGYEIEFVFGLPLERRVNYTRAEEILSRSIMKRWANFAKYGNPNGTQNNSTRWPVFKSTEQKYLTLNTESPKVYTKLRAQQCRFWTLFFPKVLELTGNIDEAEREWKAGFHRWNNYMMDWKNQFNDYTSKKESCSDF

[4] = biological target: T1, butyrylcholinesterase (BChE); details: n 3

| Molecule | ABTS scavenging IC50 [1] [µg/mL] | ABTS radical % Inhibition (Mean±SEM) ([1]; 15.62 µg/mL) [%] | ABTS radical % Inhibition (Mean±SEM) ([1]; 31.25 µg/mL) [%] | ABTS radical % Inhibition (Mean±SEM) ([1]; 62.5 µg/mL) [%] | ABTS radical % Inhibition (Mean±SEM) ([1]; 125 µg/mL) [%] | ABTS radical % Inhibition (Mean±SEM) ([1]; 250 µg/mL) [%] | ABTS radical % Inhibition (Mean±SEM) ([1]; 500 µg/mL) [%] | ABTS radical % Inhibition (Mean±SEM) ([1]; 1,000 µg/mL) [%] | IC50 [1] [µM] | DPPH radical % Inhibition (Mean±SEM) ([2]; 15.62 µg/mL) [%] | DPPH radical % Inhibition (Mean±SEM) ([2]; 31.25 µg/mL) [%] | DPPH radical % Inhibition (Mean±SEM) ([2]; 62.5 µg/mL) [%] | DPPH radical % Inhibition (Mean±SEM) ([2]; 125 µg/mL) [%] | DPPH radical % Inhibition (Mean±SEM) ([2]; 250 µg/mL) [%] | DPPH radical % Inhibition (Mean±SEM) ([2]; 500 µg/mL) [%] | DPPH radical % Inhibition (Mean±SEM) ([2]; 1000 µg/mL) [%] | IC50 [2] [µM] | also measured |
| --- | --- | --- | --- | --- | --- | --- | --- | --- | --- | --- | --- | --- | --- | --- | --- | --- | --- | --- |
| O=C1O[C@H]([C@@H](O)CO)C(O)=C1O [Ascorbic Acid, reference compound] | <0.1 | 77.65±0.32 | 79.29±0.91 | 81.75±0.85 | 84.68±0.56 | 85.34±0.47 | 88.25±0.87 | 92.36±0.65 | 0.129 | 77.28±0.79 | 82.74±0.23 | 84.44±0.15 | 87.25±0.48 | 91.54±0.37 | 93.65±0.54 | 95.63±0.12 | 0.173 | DPPH scavenging IC50 [2]: <0.1 µg/mL |
| COc1ccc2c3c1O[C@H]1C[C@@H](O)C=C[C@@]31CCN(C)C2 [Galantamine] |  |  |  |  |  |  |  |  |  |  |  |  |  |  |  |  |  | inhibition at 15.62 µg/mL [3]: 82.76 ± 0.44% |
| ({3-[(4-Methoxy-2-Nitrophenyl) Carbamoyl] Propanoyl} Zincio 3-[(2-Methoxy-5-Nitrophenyl) Carbamoyl] Propanoate Pyridine [AAZ8] | 29 | 65.39±0.89 | 70.28±0.36 | 73.62±0.29 | 77.45±0.87 | 78.36±0.58 | 79.27±0.64 | 81.35±0.35 | 41 | 69.87±0.59 | 73.47±0.26 | 75.68±0.97 | 77.85±0.39 | 79.54±0.63 | 81.69±0.45 | 83.97±0.12 | 29 | BChE % Inhibition (Mean±SEM) ([4]; 15.62 µg/mL): 77.93±0.78 %; BChE % Inhibition (Mean±SEM) ([4]; 31.25 µg/mL): 79.31±0.67%; BChE % Inhibition (Mean±SEM) ([4]; 62.5 µg/mL): 80.72±0.58%; BChE % Inhibition (Mean±SEM) ([4]; 125 µg/mL): 81.64±1.04 %; BChE % Inhibition (Mean±SEM) ([4]; 250 µg/mL): 83.54±0.74%; BChE % Inhibition (Mean±SEM) ([4]; 500 µg/mL): 84.13±0.45 %; BChE % Inhibition (Mean±SEM) ([4]; 1,000 µg/mL): 85.17±0.87 % |
